The values that follow come from paper PMC11851448, “Meliponini Geopropolis Extracts Induce ROS Production and Death in Leishmania amazonensis Promastigotes and Axenic Amastigotes In Vitro” (Biology, 2025).

This assay concerns the target T1, LiARG (recombinant arginase from L. infantum) (Leishmania infantum, UniProt A4IB49).
T1 construct: gene LINJ_35_1490; recombinant, purified
Kind of assay: urea release, colorimetric UREA CE kit, […] nm. Format: biochemical.

Consider `O=c1c(O)c(-c2ccc(O)c(O)c2)oc2cc(O)cc(O)c12` [quercetin], for which the IC50 is 23.2 µM.
